{"source": "patent US12558396B2", "about": "“Use of cyclo(His-Pro) (CHP) for preventing, alleviating or treating peritoneal fibrosis” (NOVMETAPHARMA CO., LTD., priority 2019, dated 2026)", "format_in_all_cases": "in vivo, C57BL/6 male mice", "key": {"[1]": {"system": "animal model of peritoneal fibrosis", "assay": "Western blot of collagen 1, αSMA, p16 and p21 in peritoneal tissue of animal model of peritoneal fibrosis", "details": "Western blot corrected by GAPDH, CHP 17.5 and 35 mg/kg orally, vs CG-PD, FIGS. 3a", "method": "(§1) In order to create an animal model of peritoneal fibrosis, 7-week-old C57BL/6 male mice were purchased from Koatech and bred under constant conditions (temperature: 22±2° C., relative humidity: 55±10%, circadian cycle: 12 hours). Five animals were grouped into one group, and water and food were freely supplied in cages, and they were used in the experiment after acclimatization for one week before the experiment. After the acclimatization period, 0.1% chlorohexidine was administered by intraperitoneal injection every 3 days for 30 days to establish an animal model of peritoneal fibrosis. […] Group 3 was orally administrated with CHP at a concentration of 17.5 mg/kg (CG-PD+CHP(17.5)), and Group 4 was orally administered with CHP at a concentration of 35 mg/kg (CG-PD+CHP(35)) through 1 mL syringes every day for 30 days.\nIsoflurane which is necessary for anesthesia and dissection of mice in each group of Example 1-1 was purchased from Hana Pharm, and VetEquip's RC2 Rodent Circuit Controller Anesthesia System was prepared. Phosphate-buffered saline (PBS) was purchased from Hyclone. In order to isolate the peritoneal tissue of the mice, the mice were anesthetized by respiratory anesthesia with 3 to 3.5% isoflurane. After blood was drawn from the heart of anesthetized mice, the peritoneal tissue was immediately removed, washed with PBS, and 50 mg of the peritoneal tissue was cut out and placed in 500 μL of RIPA buffer containing protease and phosphatase inhibitors, and it was crushed using IKA's T10 homogenizer. After standing on ice for 15 minutes, centrifugation was performed at 15000 rpm at 4° C. The supernatant was collected and the protein concentration was measured by BCA quantitation, and in the same amount of the samples, the protein was separated using the Bolt™ protein gel electrophoresis system, and then transferred to a nitrocellulose membrane. The membrane was blocked with 5% skim milk at room temperature for 1 hour, and then reacted with primary antibodies collagen 1, αSMA, NRF2, p16, p21 and GAPDH antibodies overnight at 4° C. After washing 3 times for 10 minutes with TBST, the reaction was performed with the secondary antibodies at room temperature for 1 hour. After washing 3 times for 10 minutes with TBST, the expression level was measured by reacting with ECL. The size of the appearing band was quantified using the ImageJ program, and each band size value was divided by the GAPDH band size value and corrected. Statistical significance was analyzed using Student's t-test statistical method with the peritoneal fibrosis control group (CG-PD) (*p<0.05, […], ***p<0.0005)."}, "[2]": {"system": "animal model of peritoneal fibrosis", "assay": "Peritoneal tissue staining (PAS, Masson's trichrome, Sirius red) in animal model of peritoneal fibrosis", "details": "FIG. 1", "method": "as §1\nAmong the experimental animals designed in Example 1-1, the peritoneum was obtained from the mice of the groups administered with the drug and 0.1% chlorohexidine for 30 days from the xyphoid process to the upper part of the pelvic cavity, and then sacrificed with whole blood. From the skin to the parietal peritoneum, the tissues of the left abdomen were excised in a size of 0.5×1.0 cm, and some were fixed in 10% formalin for immunostaining and then embedded in paraffin. The tissue sections were cut to a thickness of 4 μm and evaluated by performing Periodic acid-Schiff (PAS) staining, Masson's trichrome (MT) staining and Sirius Red staining to check the degree of peritoneal fibrosis. After observation with an optical microscope, photographs were taken (Olympus BX-50, Olympus Optical, Tokyo, Japan)."}, "[3]": {"system": "animal model of peritoneal fibrosis", "assay": "Immunohistochemical staining of ICAM-1 and F4/80 in peritoneum of animal model of peritoneal fibrosis", "details": "CHP 17.5 and 35 mg/kg orally, 30 days, vs CG-PD, FIG. 2", "method": "as §1\nPeritoneal tissues were extracted from the mice of each group of Example 1-1, fixed in 10% formalin for immunostaining and then embedded in paraffin. Using the streptavidin biotin peroxidase (Vector Laboratories) method, these were reacted with each of the anti-ICAM1 antibody and the […] at 4° C. for 16 hours, followed by color development with diaminobenzidine tetrahydrochloride (DAB) to confirm the expressions."}, "[4]": {"system": "animal model of peritoneal fibrosis", "assay": "Real-time PCR of collagen 1, p21 and E-cadherin in peritoneal tissue of animal model of peritoneal fibrosis", "details": "real-time PCR corrected by GAPDH, CHP 17.5 and 35 mg/kg orally, vs CG-PD", "method": "as §1\nIsoflurane which is necessary for anesthesia and dissection of mice in each group of Example 1-1 was purchased from Hana Pharma, and VetEquip's RC2 Rodent Circuit Controller Anesthesia System was prepared. Phosphate-buffered saline (PBS) was purchased from Hyclone. In order to isolate the peritoneal tissue of the mice, the mice were anesthetized by respiratory anesthesia with 3 to 3.5% isoflurane. After blood was drawn from the heart of the anesthetized mice, the peritoneal tissue was immediately removed, 50 mg of the peritoneum was cut, 500 μL of NucleoZOL was added, and then it was crushed using IKA's T10 homogenizer. Subsequently, RNA was extracted according to NucleoZOL's total RNA isolation protocol, and cDNA was synthesized from 1 μg of RNA by reverse transcription polymerase chain reaction using the iScript cDNA synthesis kit. The synthesized cDNA was analyzed by real-time PCR with iQ SYBR Green Supermix using forward/reverse primer sets corresponding to each gene. The expression value of each gene was corrected by dividing by the expression value of GAPDH, a housekeeping gene. Statistical significance was analyzed using Student's t-test statistical method with the peritoneal fibrosis control group (CG-PD) (*p<0.05, […], ***p<0.0005)."}}, "data": [{"compound": "O=C1N[C@@H](Cc2cnc[nH]2)C(=O)N2CCC[C@@H]12", "note": "[CHP, cyclo(His-Pro)]", "values": [{"measurement": "extracellular matrix collagen (collagen 1) protein expression", "setting": "[1]; 3b", "value": "statistically significantly decreased"}, {"measurement": "α-SMA protein expression", "setting": "[1]; 3c", "value": "statistically significantly decreased"}, {"measurement": "p16 protein expression", "setting": "[1]; 3e", "value": "significantly reduced"}, {"measurement": "p21 protein expression", "setting": "[1]; 3d", "value": "significantly reduced"}, {"measurement": "thickened peritoneal layer (MT staining)", "setting": "[2]; CHP 35 mg/kg administration group compared to 17.5 mg/kg administration group, oral, daily, 30 days", "value": "significantly reduced"}, {"measurement": "deposition of immune cells (PAS staining)", "setting": "[2]; CHP 17.5 and 35 mg/kg orally every day for 30 days, 0.1% chlorohexidine i.p. model, vs fibrosis control group (CG-PD)", "value": "significantly reduced in a concentration-dependent manner"}, {"measurement": "accumulation of extracellular matrix (ECM) collagen (Sirius red staining)", "setting": "[2]; CHP 17.5 and 35 mg/kg orally every day for 30 days", "value": "significantly reduced in a concentration-dependent manner"}, {"measurement": "expression level of ICAM-1 (IHC)", "setting": "[3]", "value": "decreased"}, {"measurement": "infiltration of immune cells (f4/80-positive cells, IHC)", "setting": "[3]", "value": "rapidly decreased"}, {"measurement": "mRNA expression of extracellular matrix collagen 1", "setting": "[4]; FIG. 4a", "value": "decreased"}, {"measurement": "p21 gene expression", "setting": "[4]; FIG. 4b", "value": "significantly reduced"}, {"measurement": "expression level of E-cadherin (gene)", "setting": "[4]; FIG. 4c", "value": "significantly increased"}]}]}
